{"source": "patent US9175357B2", "about": "“Fragment ligated inhibitors selective for the polo box domain of PLK1” (UNIVERSITY OF SOUTH CAROLINA, priority 2011, dated 2015)", "note": "Numbered stars: 1 amine (or outer) side, 2 acyl side, 3 side chain; on linkers, the order of the positions; unused ones are H or OH. Square brackets hold non-standard residues; d marks the D form. Ends that are not written are not given here. Peptide text beside a SMILES is read from it. * marks the point of attachment. Quinoline(6-carbonyl) = O=C(c1ccc2ncccc2c1)*; X11 = O=C(c1cn(S(=O)(=O)c2ccccc2)c2ccccc12)*; X6 = Cc1c(C(=O)*)cc(-c2ccccc2)n1-c1ccccc1; NMe4Abz = CN(c1ccc(C(=O)[*:2])cc1)[*:1]; X3 = Cc1ccc(-c2cn(CC(=O)*)c(=O)cn2)cc1; pT = C[C@@H](OP(=O)(O)O)[C@H](N)C(=O)O; X14 = COc1cccc(-c2cc(C(=O)*)[nH]n2)c1; Benzoyl(4-OMe) = COc1ccc(C(=O)*)cc1; X7 = Cc1ccc2c(c1)N(CC(=O)*)C(=O)CO2; Benzoyl(4-Et) = CCc1ccc(C(=O)*)cc1; 1Naphthoyl = O=C(c1cccc2ccccc12)*; X2 = Cc1nc(-c2ccc(C(=O)*)cc2)no1; X10 = COc1cc(C(=O)*)cc2c1OCCO2; X15 = COc1ccc(C(=O)*)c2ccccc12; X8 = Cc1cc2c(SCC(=O)*)ncnc2s1; X1 = CCCCc1ccc(C(=O)*)cc1; X17 = CCCc1ccc(C(=O)*)cc1; X5 = CCCNc1ccc(C(=O)*)cc1; X9 = CCOc1ccc(C(=O)*)cc1; X4 = CSc1ccc(C(=O)*)cc1"}
{"target": "PLK1 (Homo sapiens (Human), UniProt P53350)", "sequence (P53350 326-603)": "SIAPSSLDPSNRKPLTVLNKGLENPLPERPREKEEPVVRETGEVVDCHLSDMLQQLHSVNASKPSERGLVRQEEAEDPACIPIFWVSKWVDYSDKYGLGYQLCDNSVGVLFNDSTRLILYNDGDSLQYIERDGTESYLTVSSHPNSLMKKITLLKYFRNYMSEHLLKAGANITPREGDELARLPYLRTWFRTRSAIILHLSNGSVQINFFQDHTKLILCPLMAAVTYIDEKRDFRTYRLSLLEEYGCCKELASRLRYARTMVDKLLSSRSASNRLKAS", "experiment": "not given", "settings": "previously identified minimized PBD binding sequences; cited from earlier work", "units": {"Kd": "µM"}}
{"compound": "CC[C@H](C)[C@H](NC(=O)[C@H](C)NC(=O)[C@@H](NC(=O)[C@H](CO)NC(=O)[C@H](Cc1c[nH]cn1)NC(=O)[C@@H](N)CC(C)C)[C@@H](C)OP(=O)(O)O)C(=O)O", "note": "[compound 5649, LHS[pT]AI] (H-LHS[pT]AI-OH)", "Kd": 0.25}
{"target": "PLK1 PBD protein (residues 367-603) (Homo sapiens (Human), UniProt P53350)", "sequence (P53350 367-603)": "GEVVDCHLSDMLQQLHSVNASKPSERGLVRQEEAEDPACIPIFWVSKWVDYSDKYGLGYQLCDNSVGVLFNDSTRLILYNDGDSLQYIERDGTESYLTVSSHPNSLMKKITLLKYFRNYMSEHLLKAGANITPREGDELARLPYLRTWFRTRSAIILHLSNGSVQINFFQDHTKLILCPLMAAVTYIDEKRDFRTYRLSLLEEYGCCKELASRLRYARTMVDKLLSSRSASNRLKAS", "experiment": "Competitive fluorescence polarization (FP) binding assay, PLK1 PBD", "settings": "not given", "units": {"IC50": "µM"}}
{"compound": "COc1ccc(C(=O)N[C@@H](CO)C(=O)N[C@H](C(=O)N2CCC[C@H]2C(=O)N[C@@H](CC(N)=O)C(=O)NCC(=O)N[C@@H](CC(C)C)C(=O)O)[C@@H](C)OP(=O)(O)O)c2ccccc12", "note": "[compound 5756, 2G1-S[pT]PNGL] (X15-S[pT]PNGL-OH)", "IC50": 99}
{"compound": "Cc1cc2c(SCC(=O)N[C@@H](CO)C(=O)N[C@H](C(=O)N3CCC[C@H]3C(=O)N[C@@H](CC(N)=O)C(=O)NCC(=O)N[C@@H](CC(C)C)C(=O)O)[C@@H](C)OP(=O)(O)O)ncnc2s1", "note": "[compound 5595] (X8-S[pT]PNGL-OH)", "IC50": 475}
{"compound": "CC(C)C[C@H](NC(=O)CNC(=O)[C@H](CC(N)=O)NC(=O)[C@@H]1CCCN1C(=O)[C@@H](NC(=O)[C@H](CO)NC(=O)c1cn(S(=O)(=O)c2ccccc2)c2ccccc12)[C@@H](C)OP(=O)(O)O)C(=O)O", "note": "[compound 5591] (X11-S[pT]PNGL-OH)", "IC50": 375}
{"compound": "COc1cc(C(=O)N[C@@H](CO)C(=O)N[C@H](C(=O)N2CCC[C@H]2C(=O)N[C@@H](CC(N)=O)C(=O)NCC(=O)N[C@@H](CC(C)C)C(=O)O)[C@@H](C)OP(=O)(O)O)cc2c1OCCO2", "note": "[compound 5604] (X10-S[pT]PNGL-OH)", "IC50": 300}
{"compound": "Cc1ccc2c(c1)N(CC(=O)N[C@@H](CO)C(=O)N[C@H](C(=O)N1CCC[C@H]1C(=O)N[C@@H](CC(N)=O)C(=O)NCC(=O)N[C@@H](CC(C)C)C(=O)O)[C@@H](C)OP(=O)(O)O)C(=O)CO2", "note": "[compound 5594, 1G1-S[pT]PNGL] (X7-S[pT]PNGL-OH)", "IC50": 350}
{"compound": "Cc1c(C(=O)N[C@@H](CO)C(=O)N[C@H](C(=O)N2CCC[C@H]2C(=O)N[C@@H](CC(N)=O)C(=O)NCC(=O)N[C@@H](CC(C)C)C(=O)O)[C@@H](C)OP(=O)(O)O)cc(-c2ccccc2)n1-c1ccccc1", "note": "[compound 5599] (X6-S[pT]PNGL-OH)", "IC50": 600}
{"compound": "Cc1ccc(-c2cn(CC(=O)N[C@@H](CO)C(=O)N[C@H](C(=O)N3CCC[C@H]3C(=O)N[C@@H](CC(N)=O)C(=O)NCC(=O)N[C@@H](CC(C)C)C(=O)O)[C@@H](C)OP(=O)(O)O)c(=O)cn2)cc1", "note": "[compound 5603, 1G3-S[pT]PNGL] (X3-S[pT]PNGL-OH)", "IC50": 250}
{"compound": "Cc1nc(-c2ccc(C(=O)N[C@@H](CO)C(=O)N[C@H](C(=O)N3CCC[C@H]3C(=O)N[C@@H](CC(N)=O)C(=O)NCC(=O)N[C@@H](CC(C)C)C(=O)O)[C@@H](C)OP(=O)(O)O)cc2)no1", "note": "[compound 5598, 1G2-S[pT]PNGL] (X2-S[pT]PNGL-OH)", "IC50": 320}
{"compound": "CC(C)C[C@H](NC(=O)CNC(=O)[C@H](CC(N)=O)NC(=O)[C@@H]1CCCN1C(=O)[C@@H](NC(=O)[C@H](CO)NC(=O)c1cccc2ccccc12)[C@@H](C)OP(=O)(O)O)C(=O)O", "note": "[compound 5753] (1Naphthoyl-S[pT]PNGL-OH)", "IC50": 104}
{"compound": "COc1cccc(-c2cc(C(=O)N[C@@H](CO)C(=O)N[C@H](C(=O)N3CCC[C@H]3C(=O)N[C@@H](CC(N)=O)C(=O)NCC(=O)N[C@@H](CC(C)C)C(=O)O)[C@@H](C)OP(=O)(O)O)[nH]n2)c1", "note": "[compound 5593] (X14-S[pT]PNGL-OH)", "IC50": 380}
{"compound": "CC(C)C[C@H](NC(=O)CNC(=O)[C@H](CC(N)=O)NC(=O)[C@@H]1CCCN1C(=O)[C@@H](NC(=O)[C@H](CO)NC(=O)c1ccc2ncccc2c1)[C@@H](C)OP(=O)(O)O)C(=O)O", "note": "[compound 5601] ({Quinoline(6-carbonyl)}-S[pT]PNGL-OH)", "IC50": 400}
{"target": "PLK1 PBD protein (residues 367-603) (Homo sapiens (Human), UniProt P53350)", "experiment": "Competitive fluorescence polarization (FP) binding assay, PLK1 PBD", "settings": "Table 1"}
{"compound": "Ac-PLHSEA [compound 5744, Ac-PLHSEA]", "PLK1 PBD IC50": "weakly but detectably bound"}
{"compound": "CC(C)C[C@H](NC(=O)CNC(=O)[C@H](CC(N)=O)NC(=O)[C@@H]1CCCN1C(=O)[C@@H](NC(=O)[C@@H](N)CO)[C@@H](C)OP(=O)(O)O)C(=O)O", "note": "[Sample No. 5714, S[pT]PNGL] (H-S[pT]PNGL-OH)", "PLK1 PBD IC50": "no detectable binding"}
{"target": "PLK1 PBD protein (residues 367-603) (Homo sapiens (Human), UniProt P53350)", "experiment": "Competitive fluorescence polarization (FP) binding assay, PLK1 PBD", "settings": "Table 1; read-out: PLK1 PBD IC50", "units": {"IC50": "µM"}}
{"compound": "CC[C@H](C)[C@H](NC(=O)[C@H](C)NC(=O)[C@@H](NC(=O)[C@H](CO)NC(=O)[C@H](Cc1c[nH]cn1)NC(=O)[C@H](CC(C)C)NC(C)=O)[C@@H](C)OP(=O)(O)O)C(=O)O", "note": "[Sample No. 5781, Ac-LHS[pT]AI, reference compound] (Ac-LHS[pT]AI-OH)", "IC50": 5}
{"target": "PLK1 PBD protein (residues 367-603) (Homo sapiens (Human), UniProt P53350)", "experiment": "Competitive fluorescence polarization (FP) binding assay, PLK1 PBD", "settings": "Table 2, FP assay; read-out: IC50", "units": {"IC50": "µM"}}
{"compound": "CNc1ccc(C(=O)N[C@@H](CO)C(=O)N[C@H](C(=O)N2CCC[C@H]2C(=O)N[C@@H](CC(N)=O)C(=O)NCC(=O)N[C@@H](CC(C)C)C(=O)O)[C@@H](C)OP(=O)(O)O)cc1", "note": "[compound 5792] (NMe4Abz-S[pT]PNGL-OH)", "IC50": 31.2}
{"compound": "COc1ccc(C(=O)N[C@@H](CO)C(=O)N[C@H](C(=O)N2CCC[C@H]2C(=O)N[C@@H](CC(N)=O)C(=O)NCC(=O)N[C@@H](CC(C)C)C(=O)O)[C@@H](C)OP(=O)(O)O)cc1", "note": "[compound 5754] ({Benzoyl(4-OMe)}-S[pT]PNGL-OH)", "IC50": 125}
{"compound": "CCOc1ccc(C(=O)N[C@@H](CO)C(=O)N[C@H](C(=O)N2CCC[C@H]2C(=O)N[C@@H](CC(N)=O)C(=O)NCC(=O)N[C@@H](CC(C)C)C(=O)O)[C@@H](C)OP(=O)(O)O)cc1", "note": "[compound 5786] (X9-S[pT]PNGL-OH)", "IC50": 64.7}
{"compound": "CCCNc1ccc(C(=O)N[C@@H](CO)C(=O)N[C@H](C(=O)N2CCC[C@H]2C(=O)N[C@@H](CC(N)=O)C(=O)NCC(=O)N[C@@H](CC(C)C)C(=O)O)[C@@H](C)OP(=O)(O)O)cc1", "note": "[compound 5830] (X5-S[pT]PNGL-OH)", "IC50": 16.5}
{"compound": "CCCCc1ccc(C(=O)N[C@@H](CO)C(=O)N[C@H](C(=O)N2CCC[C@H]2C(=O)N[C@@H](CC(N)=O)C(=O)NCC(=O)N[C@@H](CC(C)C)C(=O)O)[C@@H](C)OP(=O)(O)O)cc1", "note": "[compound 5827, 3G2-S[pT]PNGL (4-butylbenzoic acid)] (X1-S[pT]PNGL-OH)", "IC50": 8.6}
{"compound": "CCc1ccc(C(=O)N[C@@H](CO)C(=O)N[C@H](C(=O)N2CCC[C@H]2C(=O)N[C@@H](CC(N)=O)C(=O)NCC(=O)N[C@@H](CC(C)C)C(=O)O)[C@@H](C)OP(=O)(O)O)cc1", "note": "[compound 5788, 3G1-S[pT]PNGL (4-ethylbenzoic acid)] ({Benzoyl(4-Et)}-S[pT]PNGL-OH)", "IC50": 16.5}
{"compound": "CSc1ccc(C(=O)N[C@@H](CO)C(=O)N[C@H](C(=O)N2CCC[C@H]2C(=O)N[C@@H](CC(N)=O)C(=O)NCC(=O)N[C@@H](CC(C)C)C(=O)O)[C@@H](C)OP(=O)(O)O)cc1", "note": "[compound 5791] (X4-S[pT]PNGL-OH)", "IC50": 18.5}
{"compound": "CCCc1ccc(C(=O)N[C@@H](CO)C(=O)N[C@H](C(=O)N2CCC[C@H]2C(=O)N[C@@H](CC(N)=O)C(=O)NCC(=O)N[C@@H](CC(C)C)C(=O)O)[C@@H](C)OP(=O)(O)O)cc1", "note": "[compound 5826] (X17-S[pT]PNGL-OH)", "IC50": 10.8}
